According to US11701372B2, “Inhalation formulations of 1'-cyano substituted carba-nucleoside analogs” (priority 2020, dated 2023):
Like-named read-outs stand apart in the source and are kept apart here.

What was measured:
[1] = assay type: physicochemical; conditions: for % assay/degs: T = 0
Description: For each condition, samples were staged at ambient and refrigerated conditions. Samples were analyzed for % assay/degs, appearance, reconstitution time, pH, and compared to T=0. The structures of the key impurities/metabolites are shown below.

[2] = In use testing of reconstituted solutions in IV bags and IV tubings; assay type: physicochemical
From the text: The IV bags and IV tubings were sampled over time and tested for % assay/degradation.

[3] = PK following IV administration of Formula Ia in African Green Monkeys; set-up: species or system African Green Monkeys; conditions: monkey, in vivo; 10 mg/kg IV AGM; read-out: AUC0-t
in vivo = conditions: both, monkey, inhaled or intranasal
Description: The average deposited dose was calculated at 0.168 mg/kg and 0.536 mg/kg, respectively. Plasma, peripheral blood mononuclear cells (PBMCs), trachea, bronchi, lung lobe, liver, kidney, nasal mucosa and nasopharyngeal mucosa samples were collected in this study.

N#C[C@@]1(c2ccc3c(N)ncnn23)O[C@H](CO)[C@@H](O)[C@H]1O [Compound A]
0.06%: % assay/degs, difference from T = 0 ([1]; pH 2.0, Ambient, 48 h)
0.03%: % assay/degs, difference from T = 0 ([1]; pH 2.0, Ambient, 24 h)
0.01%: % assay/degs, difference from T = 0 ([1]; pH 1.8, 2-8° C., 24 h) | % assay/degs, difference from T = 0 ([1]; pH 1.8, Ambient, 3 h) | % assay/degs, difference from T = 0 ([1]; pH 1.8, Ambient, 8 h) | % assay/degs, difference from T = 0 ([1]; pH 2.0, 2-8° C., 48 h) | % assay/degs, difference from T = 0 ([1]; pH 2.0, Ambient, 8 h) | % assay/degs, difference from T = 0 ([1]; pH 3.5, Ambient, 96 h) | % assay/degs, difference from T = 0 ([1]; pH 3.5, Ambient, 168 h)
2 h: Tmax (in vivo; 0.536 mg/kg)
0.05%: % assay/degs, difference from T = 0 ([1]; pH 1.8, Ambient, 24 h)
9.06 µM·h: AUC(0-t) [3]
0.02 % w/w: % assay/degradation ([2]; 0 h, 0.3 mg/mL) | % assay/degradation ([2]; 30 mg (IV Bag), Ambient 8 h) | % assay/degradation ([2]; 30 mg (IV Bag), Ambient 24 h) | % assay/degradation ([2]; 30 mg (IV Bag), T = 0 (2-8° C. series)) | % assay/degradation ([2]; 200 mg (IV Bag), 2-8° C. 24 h) | % assay/degradation ([2]; 200 mg (IV Bag), 2-8° C. 48 h) | % assay/degradation ([2]; 200 mg (IV Bag), Ambient 8 h) | % assay/degradation ([2]; 200 mg (IV Bag), Ambient 24 h) | % assay/degradation ([2]; 200 mg (IV Bag), T = 0 (2-8° C. series)) | % assay/degradation ([2]; 200 mg in 100 mL 0.9% Saline (IV Bag), T = 0 (Ambient series)) | % assay/degradation ([2]; 4 h, 0.3 mg/mL) | % assay/degradation ([2]; 4 h, 2 mg/mL) | % assay/degradation ([2]; 6 h, 2 mg/mL) | % assay/degradation ([2]; 24 h, 0.3 mg/mL) | % assay/degradation ([2]; 48 h, 0.3 mg/mL)
0.09%: % assay/degs, difference from T = 0 ([1]; pH 1.8, Ambient, 48 h)
1 h: Tmax (in vivo; 0.168 mg/kg)
0.00%: % assay/degs, difference from T = 0 ([1]; pH 1.8, 2-8° C., 2 h) | % assay/degs, difference from T = 0 ([1]; pH 1.8, 2-8° C., 3 h) | % assay/degs, difference from T = 0 ([1]; pH 1.8, 2-8° C., 8 h) | % assay/degs, difference from T = 0 ([1]; pH 1.8, Ambient, 1 h) | % assay/degs, difference from T = 0 ([1]; pH 1.8, Ambient, 2 h) | % assay/degs, difference from T = 0 ([1]; pH 2.0, 2-8° C., 2 h) | % assay/degs, difference from T = 0 ([1]; pH 2.0, 2-8° C., 3 h) | % assay/degs, difference from T = 0 ([1]; pH 2.0, 2-8° C., 8 h) | % assay/degs, difference from T = 0 ([1]; pH 2.0, 2-8° C., 24 h) | % assay/degs, difference from T = 0 ([1]; pH 2.0, Ambient, 1 h) | % assay/degs, difference from T = 0 ([1]; pH 2.0, Ambient, 2 h) | % assay/degs, difference from T = 0 ([1]; pH 2.0, Ambient, 3 h) | % assay/degs, difference from T = 0 ([1]; pH 3.5, 2-8° C., 2 h) | % assay/degs, difference from T = 0 ([1]; pH 3.5, 2-8° C., 8 h) | % assay/degs, difference from T = 0 ([1]; pH 3.5, 2-8° C., 24 h) | % assay/degs, difference from T = 0 ([1]; pH 3.5, 2-8° C., 48 h) | % assay/degs, difference from T = 0 ([1]; pH 3.5, 2-8° C., 72 h) | % assay/degs, difference from T = 0 ([1]; pH 3.5, 2-8° C., 96 h) | % assay/degs, difference from T = 0 ([1]; pH 3.5, 2-8° C., 168 h) | % assay/degs, difference from T = 0 ([1]; pH 3.5, Ambient, 2 h) | % assay/degs, difference from T = 0 ([1]; pH 3.5, Ambient, 8 h) | % assay/degs, difference from T = 0 ([1]; pH 3.5, Ambient, 24 h) | % assay/degs, difference from T = 0 ([1]; pH 3.5, Ambient, 48 h) | % assay/degs, difference from T = 0 ([1]; pH 3.5, Ambient, 72 h) | % assay/degs, difference from T = 0 ([1]; pH 3.8, 2-8° C., 7.2 h) | % assay/degs, difference from T = 0 ([1]; pH 3.8, 2-8° C., 24 h) | % assay/degs, difference from T = 0 ([1]; pH 3.8, 2-8° C., 96 h) | % assay/degs, difference from T = 0 ([1]; pH 3.8, 2-8° C., 168 h) | % assay/degs, difference from T = 0 ([1]; pH 3.8, Ambient, 7.2 h) | % assay/degs, difference from T = 0 ([1]; pH 3.8, Ambient, 24 h) | % assay/degs, difference from T = 0 ([1]; pH 3.8, Ambient, 96 h) | % assay/degs, difference from T = 0 ([1]; pH 3.8, Ambient, 168 h) | % assay/degs, difference from T = 0 ([1]; pH 4.0, 2-8° C., 7.2 h) | % assay/degs, difference from T = 0 ([1]; pH 4.0, 2-8° C., 24 h) | % assay/degs, difference from T = 0 ([1]; pH 4.0, 2-8° C., 96 h) | % assay/degs, difference from T = 0 ([1]; pH 4.0, 2-8° C., 168 h) | % assay/degs, difference from T = 0 ([1]; pH 4.0, Ambient, 7.2 h) | % assay/degs, difference from T = 0 ([1]; pH 4.0, Ambient, 24 h) | % assay/degs, difference from T = 0 ([1]; pH 4.0, Ambient, 96 h) | % assay/degs, difference from T = 0 ([1]; pH 4.0, Ambient, 168 h)
0.02%: % assay/degs, difference from T = 0 ([1]; pH 1.8, 2-8° C., 48 h) | % assay/degs ([1]; pH 1.8) | % assay/degs ([1]; pH 2.0) | % assay/degs ([1]; pH 3.5) | % assay/degs ([1]; pH 3.8) | % assay/degs ([1]; pH 4.0)
0.03 % w/w: % assay/degradation ([2]; 30 mg (IV Tube), Ambient 6 Hours)
71 ± 11 nM: Cmax (in vivo; 0.536 mg/kg)
